The values below are quoted from earlier work in patent US9540691B2, “Assays and methods for selecting a treatment regimen for a subject with depression” (THE GENERAL HOSPITAL CORPORATION, priority 2011, dated 2017).

SMILES strings stand for the structures. Read-outs that look alike come from different tables or passages of the source.

The data set concerns adults with DSM-IV MDD, partial or nonresponse to an SSRI. Conditions: cited from earlier work.

For `Nc1nc(=O)c2c([nH]1)NCC(CNc1ccc(C(=O)N[C@@H](CCC(=O)O)C(=O)O)cc1)N2C=O` (mixture of isomers) [Folinic acid], the “HAM-D-17 score after treatment” value (16 completers, decreased from 19.1+/−3.9, p<0.01) was 12.8+/−7.0. Further, the “remission (HAM-D-17 no greater than 7)” value is listed as 18% (ITT sample) and 19% (completers). The “response (at least 50% reduction in HAM-D-17)” value reads like this: (completers) 31%; (intent-to-treat (ITT) sample) 27%. For the same molecule, the “Folate levels after treatment” value (folinic acid 15-30 mg/day added to SSRIs, 8 weeks, rose from 28+/−19, p<0.001) is 301 ± 203 ng/mL.
